These are literature values, as cited in patent US20050113433A1, “Compositions of a phenyl acetic acid cyclooxygenase-2 selective inhibitor and a cholinergic agent for the treatment of reduced blood flow or trauma to the central nervous system” (Pharmacia Corporation, priority 2003, published 2005).

Molecules are shown by their SMILES.

For this series the following is noted: administered to subjects following stroke.

Turning to `C[N+](C)(C)CCOP(=O)(O)OP(=O)(O)OC[C@H]1O[C@@H](n2ccc(N)nc2=O)[C@H](O)[C@@H]1O` [citicoline], the behavioral parameters entry is recorded as “improvement in behavioral parameters” and the infarction volume entry was “decrease in infarction volume”.
